Test results as given in US9428504B2, “7-hydroxy-spiropipiperidine indolinyl antagonists of P2Y1 receptor” (BRISTOL-MYERS SQUIBB COMPANY, priority 2012, dated 2016).
Structures can show the parent of a compound that is named as a salt. Where two headings read alike, the source gives them in different places.

Columns and labels:
[1] = biological target: T1, cloned human P2Y1 receptors (Homo sapiens (Human), UniProt P47900); assay: Binding Assay A: membrane binding assay, [33P] 2MeS-ADP
Excerpt: A membrane binding assay was used to identify inhibitors of [^33P] […] The cDNA clone for human P2Y1 was obtained from Incyte Pharmaceuticals and its sequence confirmed by established techniques (for a compendium of techniques used see Ausubel, F. et al. Current Protocols in Molecular Biology, John Wiley and Sons, NY, N.Y. (1995)). The essential coding sequences were subcloned into pCDNA 3.1 (Invitrogen) to produce a P2Y1 expression construct. This construct was then transfected into the human embryonic kidney cell line HEK-293 and stable transfectants selected in GENETICIN® (G418 sulfate; Life Technologies). […] Membranes were prepared by growing HEK293 #49 in 150 mm dishes in DMEM/10% FBS in the presence of 1 mg/ml G418 until cells were 80-90% confluent. Plates were then washed with cold (4° C.) D-PBS twice and cells harvested by scraping into 10 mL D-PBS. Cells were pelleted by centrifugation (1,000 g, 10 min, 4° C.) and the resulting pellet resuspended in Lysis Buffer (10 mM Tris (7.4), 5 mM MgCl2 containing Complete protease inhibitor cocktail (Roche Cat #1873580) as recommended by the manufacturer). The suspension was then homogenized in a Dounce homogenizer (10-15 strokes; B pestle, on ice) and the homogenate spun at 1,000 g, 4° C., 5 min to pellet large debris. The supernatant was centrifuged at 150,000 g, 4° C., for 1 hour and the resulting membrane pellet resuspended in 0.5-1 mL of Buffer B (15 mM HEPES (7.4), 145 mM NaCl, 0.1 mM MgCl2, 5 mM EDTA, 5 mM KCl) and stored at −70° C. until used.
Binding reactions were performed in WGA FLASHPLATE®s (PerkinElmer Life Sciences, Cat # SMP105A) in a volume of 200 μL containing ˜45 fmol of P2Y1 receptor (5 μg of total protein), 0.5 nM [^33P] […] Reactions were allowed to proceed to completion at room temperature for 1 hour and then the aqueous solution aspirated. Plates were sealed and the residual [^33P] bound to the plate determined by scintillation counting.

[2] = system: human platelet rich plasma (PRP); assay: ADP induced platelet aggregation assay
[3] = biological target: T1, cloned human P2Y1 receptors; assay: Binding Assay B: Scintillation Proximity Assay (SPA) for P2Y1 binding; conditions: SPA, [33P] 2MeS-ADP displacement; read-out: P2Y1 Ki (nM) using binding assay B
How it was run: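 Membranes with ~15 fmol receptor (1.7 μg total protein) incubated with 0.3 nM [^33P]-labelled radioligand for 1 h at room temperature to completion. After centrifugation and removal of aqueous phase, bound radioactivity read by scintillation proximity; inhibition of radioligand binding measured.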

[4] = values marked *, WGA FlashPlate, [33P] 2MeS-ADP displacement, read-out: P2Y1 Ki (nM) *Using binding assay A
[5] = Homo sapiens, Platelet, read-out: PA IC50 (μM) @ 10 μM ADP, platelet aggregation induced by 10 μM ADP, human PRP

T1 sequence (P47900 whole entry): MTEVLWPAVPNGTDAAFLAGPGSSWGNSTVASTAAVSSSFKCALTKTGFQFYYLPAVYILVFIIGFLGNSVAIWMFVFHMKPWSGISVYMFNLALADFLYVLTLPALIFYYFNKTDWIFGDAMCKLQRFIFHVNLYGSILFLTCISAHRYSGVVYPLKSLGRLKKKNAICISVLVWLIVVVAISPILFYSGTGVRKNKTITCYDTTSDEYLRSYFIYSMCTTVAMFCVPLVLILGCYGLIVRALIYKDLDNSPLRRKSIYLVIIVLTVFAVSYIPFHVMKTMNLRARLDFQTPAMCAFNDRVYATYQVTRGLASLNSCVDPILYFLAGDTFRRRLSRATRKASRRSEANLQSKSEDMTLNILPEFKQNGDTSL

SMILES	Ki [1]	IC50 ([2]; read-out: PA IC50 (μM) @ 10 μM ADP, platelet aggregation induced by 10 μM ADP, human PRP)	Ki [1, 4]	IC50 [2, 5]	Ki [3]
CC(C)(C)CN1CCC2(CC1)CN(c1ccccc1NC(=O)Nc1nc3ccc(Cl)nc3s1)c1c(O)ccc(Cl)c12 [Example 167, 1-(2-(4-Chloro-7-hydroxy-1′-neopentylspiro[indoline-3,4′-piperidine]-1-yl)phenyl)-3-(5-chlorothiazolo[5,4-b]pyridin-2-yl)urea, methanesulfonic acid salt]	3.3 nM	0.5 µM	–	–	–
CC(C)c1nsc(NC(=O)Nc2ccccc2N2CC3(CCN(CC(C)(C)C)CC3)c3c(F)ccc(O)c32)n1 [Example 35, 1-(2-(4-Fluoro-7-hydroxy-1′-neopentylspiro[indoline-3,4′-piperidine]-1-yl)phenyl)-3-(3-isopropyl-1,2,4-thiadiazol-5-yl)urea]	–	–	1.9 nM	0.3 µM	–
Cc1ccc2nc(NC(=O)Nc3ccccc3N3CC4(CCN(CC(C)(C)C)CC4)c4c(F)ccc(O)c43)sc2c1 [Example 34, 1-(2-(7-Hydroxy-4-fluoro-1′-neopentylspiro[indoline-3,4′-piperidine]-1-yl)phenyl)-3-(6-methylbenzo[d]thiazol-2-yl)urea]	–	–	3.7 nM	0.5 µM	–
CC(C)(C)CN1CCC2(CC1)CN(c1ccccc1NC(=O)Nc1ccc(OC(F)(F)F)cc1)c1c(O)cccc12 [Example 1, 1-(2-(7-Hydroxy-1′-neopentylspiro[indoline-3,4′-piperidine]-1-yl)phenyl)-3-(4-(trifluoromethoxy)phenyl)urea]	–	–	10.3 nM	1.7 µM	–
CC(C)N1CCC2(CC1)CN(c1ccccc1NC(=O)Nc1ccc(OC(F)(F)F)cc1)c1ccccc12 [Comparator 1, reference compound]	–	–	300 nM	29.2 µM	–
CC(C)N1CCC2(CC1)CN(c1ncccc1NC(=O)Nc1ccc(OC(F)(F)F)cc1)c1ccccc12 [Comparator 3, reference compound]	–	–	5300 nM	–	–
CC(C)(C)CN1CCC2(CC1)CN(c1ccccc1NC(=O)Nc1nc3ccc(Cl)cc3s1)c1c(O)ccc(F)c12 [Example 33, 1-(2-(7-Hydroxy-4-fluoro-1′-neopentylspiro[indoline-3,4′-piperidine]-1-yl)phenyl)-3-(6-chlorobenzo[d]thiazol-2-yl)urea]	–	–	3.7 nM	0.4 µM	–
CC(C)c1nsc(NC(=O)Nc2ccccc2N2CC3(CCN(CC(C)(C)C)CC3)c3c(Cl)ccc(O)c32)n1 [Example 43, 1-(2-(4-Chloro-7-hydroxy-1′-neopentylspiro[indoline-3,4′-piperidine]-1-yl)phenyl)-3-(3-isopropyl-1,2,4-thiadiazol-5-yl)urea]	–	–	4.4 nM	0.3 µM	–
CC(C)CN1CCC2(CC1)CN(c1ccccc1NC(=O)Nc1ccc(OC(F)(F)F)cc1)c1ccccc12 [Comparator 2, reference compound]	–	–	20.2 nM	8.8 µM	–
Cc1nsc(NC(=O)Nc2ccccc2N2CC3(CCN(CC(C)(C)C)CC3)c3c(Cl)ccc(O)c32)n1 [Example 42, 1-(2-(4-Chloro-7-hydroxy-1′-neopentylspiro[indoline-3,4′-piperidine]-1-yl)phenyl)-3-(3-methyl-1,2,4-thiadiazol-5-yl)urea]	–	–	3.3 nM	0.3 µM	–
CC(C)(C)CN1CCC2(CC1)CN(c1ccccc1NC(=O)Nc1nc3ccc(Cl)cc3s1)c1c(O)cccc12 [Example 75, 1-(6-Chlorobenzo[d]thiazol-2-yl)-3-(2-(7-hydroxy-1′-neopentylspiro [indoline-3,4′-piperidine]-1-yl)phenyl)urea]	–	–	7.5 nM	0.4 µM	–
CC(C)(C)CN1CCC2(CC1)CN(c1ccccc1NC(=O)Nc1ccc(OC(F)(F)F)cc1)c1c(O)cc(F)c(-c3ccc(Cl)cc3)c12 [Example 157, 1-(2-(4-(4-Chlorophenyl)-5-fluoro-7-hydroxy-1′-neopentylspiro[indoline-3,4′-piperidin]-1-yl)phenyl)-3-(4-(trifluoromethoxy)phenyl)urea]	–	–	–	0.2 µM	12.3 nM
CC(C)(C)CN1CCC2(CC1)CN(c1ncccc1NC(=O)Nc1ccc(C(C)(C)C)cc1)c1c(O)ccc(C(F)(F)F)c12 [Example 13, 1-(4-tert-Butylphenyl)-3-(2-(7-hydroxy-1′-neopentyl-4-(trifluoromethyl)spiro[indoline-3,4′-piperidine]-1-yl)pyridin-3-yl)urea]	–	–	3.3 nM	0.5 µM	–
